Data from ChEMBL document CHEMBL3885861, “Open TG-GATES”.

Species: Rattus norvegicus
Test: Open TG-GATES - Regimen: Single
Assay type: toxicity, organism-based, Sprague-Dawley
Design: regimen Single, gender Male, age 6 weeks
Conditions: in vivo, po, 0 mg/kg, route gavage, dose level Control; for APTT / Bas / Eos / Fbg / Hb / Ht / Lym / MCH / MCHC / MCV / Mono / Neu / PT / Plat / RBC / Ret / WBC: tissue Blood; for ALP / ALT / AST / BUN / CRE / DBIL / GLC / IP / K / Na / PL / RALB / TBIL / TC / TG / TP / gamma-GTP: tissue Plasma

NS(=O)(=O)c1cc(C(=O)O)c(NCc2ccco2)cc1Cl [FUROSEMIDE]
TERMINAL_BW (3 h): 205.5 g | APTT (3 h): 15.8 s | Bas (3 h): 0% | Eos (3 h): 0.8% | Fbg (3 h): 270 mg/dL | Hb (3 h): 13.2 g/dL | Ht (3 h): 39.9% | Lym (3 h): 78.2% | MCH (3 h): 21.5 pg | MCHC (3 h): 33.2% | MCV (3 h): 64.8 fL | Mono (3 h): 2.8% | Neu (3 h): 17.2% | PT (3 h): 15.6 s | Plat (3 h): 115.8 x10_4/uL | RBC (3 h): 615.6 x10_4/ul | Ret (3 h): 7.3% | WBC (3 h): 70.5 x10_2/uL | ALP (3 h): 1448.8 IU/L | ALT (3 h): 40.4 IU/L | AST (3 h): 76.2 IU/L | BUN (3 h): 10.2 mg/dL | CRE (3 h): 0.2 mg/dL | DBIL (3 h): 0.01 mg/dL | GLC (3 h): 172.8 mg/dL | IP (3 h): 9 mg/dL | K (3 h): 4 meq/L | Na (3 h): 142.4 meq/L | PL (3 h): 137.6 mg/dL | RALB (3 h): 2.5 g/dL | TBIL (3 h): 0.058 mg/dL | TC (3 h): 72.2 mg/dL | TG (3 h): 61.6 mg/dL | TP (3 h): 5.4 g/dL | gamma-GTP (3 h): 0.6 IU/L | TERMINAL_BW (6 h): 207.5 g | APTT (6 h): 16.5 s | Bas (6 h): 0% | Eos (6 h): 1.2% | Fbg (6 h): 313.6 mg/dL | Hb (6 h): 13.1 g/dL | Ht (6 h): 39.4% | Lym (6 h): 75.8% | MCH (6 h): 21.2 pg | MCHC (6 h): 33.1% | MCV (6 h): 63.9 fL | Mono (6 h): 2.8% | Neu (6 h): 19.4% | PT (6 h): 15.3 s | Plat (6 h): 122.5 x10_4/uL | RBC (6 h): 617.2 x10_4/ul | Ret (6 h): 8% | WBC (6 h): 72.8 x10_2/uL | ALP (6 h): 1332.6 IU/L | ALT (6 h): 39 IU/L | AST (6 h): 70.6 IU/L | BUN (6 h): 11 mg/dL | CRE (6 h): 0.2 mg/dL | DBIL (6 h): 0.012 mg/dL | GLC (6 h): 173.8 mg/dL | IP (6 h): 9.7 mg/dL | K (6 h): 3.9 meq/L | Na (6 h): 142.2 meq/L | PL (6 h): 143.2 mg/dL | RALB (6 h): 2.6 g/dL | TBIL (6 h): 0.062 mg/dL | TC (6 h): 80.4 mg/dL | TG (6 h): 48.8 mg/dL | TP (6 h): 5.5 g/dL | gamma-GTP (6 h): 0.8 IU/L | TERMINAL_BW (9 h): 206.6 g | APTT (9 h): 19.4 s | Bas (9 h): 0% | Eos (9 h): 0.8% | Fbg (9 h): 294.4 mg/dL | Hb (9 h): 13 g/dL | Ht (9 h): 39% | Lym (9 h): 79.6% | MCH (9 h): 20.7 pg | MCHC (9 h): 33.2% | MCV (9 h): 62.4 fL | Mono (9 h): 2.2% | Neu (9 h): 17% | PT (9 h): 15.3 s | Plat (9 h): 108.3 x10_4/uL | RBC (9 h): 625.6 x10_4/ul | Ret (9 h): 7.8% | WBC (9 h): 70.5 x10_2/uL | ALP (9 h): 1206 IU/L | ALT (9 h): 40.8 IU/L | AST (9 h): 68.2 IU/L | BUN (9 h): 9 mg/dL | CRE (9 h): 0.2 mg/dL | DBIL (9 h): 0.01 mg/dL | GLC (9 h): 182.8 mg/dL | IP (9 h): 10.2 mg/dL | K (9 h): 4 meq/L | Na (9 h): 144.2 meq/L | PL (9 h): 142 mg/dL | RALB (9 h): 2.6 g/dL | TBIL (9 h): 0.066 mg/dL | TC (9 h): 79 mg/dL | TG (9 h): 35.8 mg/dL | TP (9 h): 5.6 g/dL | gamma-GTP (9 h): 0.8 IU/L | TERMINAL_BW (24 h): 222.4 g | APTT (24 h): 16.2 s | Bas (24 h): 0% | Eos (24 h): 1% | Fbg (24 h): 270.8 mg/dL | Hb (24 h): 13.1 g/dL | Ht (24 h): 39.3% | Lym (24 h): 74.2% | MCH (24 h): 21.3 pg | MCHC (24 h): 33.3% | MCV (24 h): 64.1 fL | Mono (24 h): 3.2% | Neu (24 h): 20.6% | PT (24 h): 15.9 s | Plat (24 h): 116.4 x10_4/uL | RBC (24 h): 613.6 x10_4/ul | Ret (24 h): 7.6% | WBC (24 h): 104.1 x10_2/uL | ALP (24 h): 1714.2 IU/L | ALT (24 h): 47.4 IU/L | AST (24 h): 73.4 IU/L | BUN (24 h): 15.4 mg/dL | CRE (24 h): 0.2 mg/dL | DBIL (24 h): 0.014 mg/dL | GLC (24 h): 182.4 mg/dL | IP (24 h): 8.4 mg/dL | K (24 h): 4.2 meq/L | Na (24 h): 141.6 meq/L | PL (24 h): 156 mg/dL | RALB (24 h): 2.6 g/dL | TBIL (24 h): 0.052 mg/dL | TC (24 h): 81.6 mg/dL | TG (24 h): 72.8 mg/dL | TP (24 h): 5.7 g/dL | gamma-GTP (24 h): 0.8 IU/L
